# Measurements taken from US20060052387A1, “Organic compounds” (priority 2002, published 2006).
# Where two headings read alike, the source gives them in different places.
# Legend:
# [1] = system: Caspase-3 activity in M-CSF-stimulated human monocytes; conditions: M-CSF 20 ng/mL + DMSO, 18 hours
# Source text: Caspase-3 is a cysteine aspartate protease involved in the cascade leading to DNA fragmentation. Caspase-3 cleaves one subunit of a dimer called DNA fragmentation factor (DFF) at a tetrapeptide sequence DEVD, the other subunit then activates a nuclease that degrades DNA. […] Caspase-3 activity is defined as the amount of free amino trifluoromethylcoumarin (AFC) released from the caspase-3 selective fluorosubstrate DEVD-AFC measured by fluorometry. In the following table, caspase activity is given in pmol/min/mg.
# Akt = conditions: SALT I 1 or 5 NM (so in the source); M-CSF 100 ng/mL for three minutes
# Description: Akt1 also called protein kinase B is a serine/threonine kinase involved in a signaling pathway activated by the Bcr-Ab1 activity. Phosphorylated Akt1 phosphorylates cellular proteins and promotes cell proliferation and cell survival.
# In vitro Akt kinase assays were performed as described in Kelley et al., supra. Briefly, monocytes were incubated overnight with M-CSF (20 ng/mL), serum-starved for 1.5 hours. […] Akt protein was immunoprecipitated from the cell lysate. The blot was probed with anti-phospho-threonine-Akt, stripped and re-probed for total Akt.
# [2] = system: M-CSF-stimulated human monocytes; conditions: for numbers of viable cells after the incubation period / numbers of viable cells after the incubation period, Mean: M-CSF 20 ng/mL + DMSO, 24 hours; for numbers of viable cells after the incubation period, Mean: Mean of 3 experiments
compound,measurement,setting,value
CS(=O)(=O)O.Cc1ccc(NC(=O)c2ccc(CN3CCN(C)CC3)cc2)cc1Nc1nccc(-c2cccnc2)n1 [SALT I],caspase activity,"[1]; Donor 1, SALT I 0.1 pM (so in the source)",156 pmol/min/mg
same,caspase activity,"[1]; Donor 1, SALT I 1 pM (so in the source)",356 pmol/min/mg
same,caspase activity,"[1]; Donor 1, SALT I 5 pM (so in the source)",573 pmol/min/mg
same,caspase activity,"[1]; Donor 1, SALT I 10 pM (so in the source)",629 pmol/min/mg
same,caspase activity,"[1]; Donor 2, SALT I 0.1 pM (so in the source)",220 pmol/min/mg
same,caspase activity,"[1]; Donor 2, SALT I 1 pM (so in the source)",299 pmol/min/mg
same,caspase activity,"[1]; Donor 2, SALT I 5 pM (so in the source)",329 pmol/min/mg
same,caspase activity,"[1]; Donor 2, SALT I 10 pM (so in the source)",407 pmol/min/mg
same,Akt phosphorylation (in words),Akt,Decreases
same,numbers of viable cells after the incubation period,"[2]; Experiment 1, SALT I 1 pM (so in the source)",130
same,numbers of viable cells after the incubation period,"[2]; Experiment 1, SALT I 5 pM (so in the source)",156
same,numbers of viable cells after the incubation period,"[2]; Experiment 1, SALT I 10 pM (so in the source)",138
same,numbers of viable cells after the incubation period,"[2]; Experiment 1, SALT I 50 pM (so in the source)",46
same,numbers of viable cells after the incubation period,"[2]; Experiment 1, SALT I 100 pM (so in the source)",15
same,numbers of viable cells after the incubation period,"[2]; Experiment 2, SALT I 1 pM (so in the source)",79
same,numbers of viable cells after the incubation period,"[2]; Experiment 2, SALT I 5 pM (so in the source)",47
same,numbers of viable cells after the incubation period,"[2]; Experiment 2, SALT I 10 pM (so in the source)",46
same,numbers of viable cells after the incubation period,"[2]; Experiment 2, SALT I 50 pM (so in the source)",7
same,numbers of viable cells after the incubation period,"[2]; Experiment 2, SALT I 100 pM (so in the source)",11
same,numbers of viable cells after the incubation period,"[2]; Experiment 3, SALT I 1 pM (so in the source)",143
same,numbers of viable cells after the incubation period,"[2]; Experiment 3, SALT I 5 pM (so in the source)",75
same,numbers of viable cells after the incubation period,"[2]; Experiment 3, SALT I 10 pM (so in the source)",58
same,numbers of viable cells after the incubation period,"[2]; Experiment 3, SALT I 50 pM (so in the source)",36
same,numbers of viable cells after the incubation period,"[2]; Experiment 3, SALT I 100 pM (so in the source)",16
same,number of monocytes surviving at 18 hours (in words),"[2]; M-CSF stimulated monocytes, 18 hours",reduces
same,"numbers of viable cells after the incubation period, Mean",[2]; SALT I 1 pM (so in the source),117
same,"numbers of viable cells after the incubation period, Mean",[2]; SALT I 5 pM (so in the source),93
same,"numbers of viable cells after the incubation period, Mean",[2]; SALT I 10 pM (so in the source),81
same,"numbers of viable cells after the incubation period, Mean",[2]; SALT I 50 pM (so in the source),30
same,"numbers of viable cells after the incubation period, Mean",[2]; SALT I 100 pM (so in the source),14
